# Test results from PubChem BioAssay (NCI).
# Values joined by “and” are separate entries in the source; they are usually repeats but may differ in a detail not shown here. Equal values may be shown once.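 Five concentrations, 48 hours, 96-well plates. Abbreviation: GI50, concentration required for 50% inhibition of growth. TGI: concentration producing complete growth inhibition.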
# Experiments:
# Assay in all cases: NCI tumour cell line growth inhibition, 48 h
# 786-0 renal = tested on: 786-0 renal
# OVCAR-4 ovarian = tested on: OVCAR-4 ovarian
# SK-OV-3 ovarian = tested on: SK-OV-3 ovarian
# SK-MEL-28 melanoma = tested on: SK-MEL-28 melanoma
# HCT-116 colon = tested on: HCT-116 colon
# SK-MEL-5 melanoma = tested on: SK-MEL-5 melanoma
# A498 renal = tested on: A498 renal
# K-562 leukemia = tested on: K-562 leukemia
# NCI-H522 lung = tested on: NCI-H522 lung
# EKVX NSCLC = tested on: EKVX NSCLC
# HOP-62 NSCLC = tested on: HOP-62 NSCLC
# SW-620 colon = tested on: SW-620 colon
# NCI-H23 lung = tested on: NCI-H23 lung
# UO-31 renal = tested on: UO-31 renal
# HOP-18 NSCLC = tested on: HOP-18 NSCLC
# LXFL 529 NSCLC = tested on: LXFL 529 NSCLC
# NCI-H460 lung = tested on: NCI-H460 lung
# SNB-19 CNS = tested on: SNB-19 CNS
# KM12 colon = tested on: KM12 colon
# HCT-15 colon = tested on: HCT-15 colon
# OVCAR-3 ovarian = tested on: OVCAR-3 ovarian
# SN12C renal = tested on: SN12C renal
# SF-539 CNS = tested on: SF-539 CNS
# RXF 393 renal = tested on: RXF 393 renal
# SNB-75 CNS = tested on: SNB-75 CNS
# NCI-H226 lung = tested on: NCI-H226 lung
# A549 NSCLC = tested on: A549 NSCLC
# M14 melanoma = tested on: M14 melanoma
# SR leukemia = tested on: SR leukemia
# SF-295 CNS = tested on: SF-295 CNS
# DLD-1 colon = tested on: DLD-1 colon
# SF-268 CNS = tested on: SF-268 CNS
# M19-MEL melanoma = tested on: M19-MEL melanoma
# LOX IMVI melanoma = tested on: LOX IMVI melanoma
# SNB-78 CNS = tested on: SNB-78 CNS
# HOP-92 NSCLC = tested on: HOP-92 NSCLC
# HT29 colon = tested on: HT29 colon
# KM20L2 colon = tested on: KM20L2 colon
# COLO 205 colon = tested on: COLO 205 colon
# UACC-62 melanoma = tested on: UACC-62 melanoma
# ACHN renal = tested on: ACHN renal
# UACC-257 melanoma = tested on: UACC-257 melanoma
# DMS 273 small cell lung = tested on: DMS 273 small cell lung
# DMS 114 small cell lung = tested on: DMS 114 small cell lung
# MALME-3M melanoma = tested on: MALME-3M melanoma
# CAKI-1 renal = tested on: CAKI-1 renal
# U251 CNS = tested on: U251 CNS
# XF 498 CNS = tested on: XF 498 CNS
# SK-MEL-2 melanoma = tested on: SK-MEL-2 melanoma
# OVCAR-5 ovarian = tested on: OVCAR-5 ovarian
# CCRF-CEM leukemia = tested on: CCRF-CEM leukemia
# RPMI-8226 leukemia = tested on: RPMI-8226 leukemia
# IGROV1 ovarian = tested on: IGROV1 ovarian
# HL-60(TB) leukemia = tested on: HL-60(TB) leukemia
# HCC-2998 colon = tested on: HCC-2998 colon
# MOLT-4 leukemia = tested on: MOLT-4 leukemia
# TK-10 renal = tested on: TK-10 renal
# OVCAR-8 ovarian = tested on: OVCAR-8 ovarian
# T-47D breast = tested on: T-47D breast
# MDA-MB-231 breast = tested on: MDA-MB-231 breast
# RXF-631 renal = tested on: RXF-631 renal
# PC-3 prostate = tested on: PC-3 prostate
# BT-549 breast = tested on: BT-549 breast
# DU-145 prostate = tested on: DU-145 prostate
# MDA-N = tested on: MDA-N
# HS 578T breast = tested on: HS 578T breast
smiles,measurement,setting,value
COc1ccc(CN[C@H]2CCc3cc(OC)c(OC)c(OC)c3-c3ccc(SC)c(=O)cc32)c(OC)c1OC,GI50,786-0 renal,0.0285 µM
same,TGI,786-0 renal,> 100 µM
same,TGI,OVCAR-4 ovarian,> 100 µM
same,TGI,SK-OV-3 ovarian,> 100 µM
same,GI50,SK-MEL-28 melanoma,0.0101 µM
same,TGI,SK-MEL-28 melanoma,> 100 µM
same,GI50,HCT-116 colon,< 0.01 µM
same,TGI,HCT-116 colon,0.0597 µM and 0.133 µM
same,TGI,SK-MEL-5 melanoma,0.257 µM
same,TGI,A498 renal,0.0804 µM
same,GI50,K-562 leukemia,< 0.01 µM
same,TGI,K-562 leukemia,1.35 µM
same,TGI,NCI-H522 lung,0.0495 µM
same,TGI,EKVX NSCLC,> 100 µM
same,GI50,HOP-62 NSCLC,0.375 µM
same,TGI,HOP-62 NSCLC,> 100 µM
same,GI50,SW-620 colon,< 0.01 µM
same,TGI,SW-620 colon,> 100 µM
same,GI50,NCI-H23 lung,< 0.01 µM
same,TGI,NCI-H23 lung,0.058 µM and 0.0396 µM
same,GI50,UO-31 renal,0.0898 µM
same,TGI,UO-31 renal,98.9 µM
same,TGI,HOP-18 NSCLC,> 100 µM
same,GI50,LXFL 529 NSCLC,< 0.01 µM
same,TGI,LXFL 529 NSCLC,> 100 µM
same,TGI,NCI-H460 lung,0.0767 µM
same,TGI,SNB-19 CNS,> 100 µM
same,GI50,KM12 colon,< 0.01 µM
same,TGI,KM12 colon,0.228 µM and 0.0408 µM
same,TGI,HCT-15 colon,0.0938 µM
same,GI50,OVCAR-3 ovarian,< 0.01 µM
same,TGI,OVCAR-3 ovarian,0.0618 µM and 0.028 µM
same,TGI,SN12C renal,59.8 µM
same,GI50,SF-539 CNS,0.01 µM
same,TGI,SF-539 CNS,0.0478 µM and 0.0387 µM
same,TGI,RXF 393 renal,0.0497 µM
same,GI50,SNB-75 CNS,5.77 µM
same,GI50,NCI-H226 lung,0.0172 µM
same,TGI,NCI-H226 lung,0.0736 µM and 0.0509 µM
same,GI50,A549 NSCLC,0.0251 µM
same,TGI,A549 NSCLC,> 100 µM
same,GI50,M14 melanoma,0.0102 µM
same,GI50,SR leukemia,< 0.01 µM
same,GI50,SF-295 CNS,0.0167 µM
same,TGI,SF-295 CNS,> 100 µM
same,GI50,DLD-1 colon,< 0.01 µM
same,TGI,DLD-1 colon,> 100 µM
same,GI50,SF-268 CNS,0.0111 µM
same,GI50,M19-MEL melanoma,0.023 µM
same,TGI,M19-MEL melanoma,> 100 µM
same,GI50,LOX IMVI melanoma,< 0.01 µM
same,TGI,LOX IMVI melanoma,15.7 µM
same,GI50,SNB-78 CNS,< 0.01 µM
same,TGI,SNB-78 CNS,> 100 µM
same,GI50,HOP-92 NSCLC,0.0295 µM
same,TGI,HOP-92 NSCLC,77.2 µM
same,TGI,HT29 colon,0.03 µM
same,GI50,KM20L2 colon,< 0.01 µM
same,TGI,KM20L2 colon,0.0351 µM and 0.0146 µM
same,GI50,COLO 205 colon,< 0.01 µM
same,TGI,COLO 205 colon,0.0645 µM and 0.0155 µM
same,TGI,UACC-62 melanoma,19.1 µM
same,GI50,ACHN renal,0.0428 µM
same,TGI,ACHN renal,> 100 µM
same,GI50,UACC-257 melanoma,0.037 µM
same,TGI,UACC-257 melanoma,> 100 µM
same,GI50,DMS 273 small cell lung,< 0.01 µM
same,TGI,DMS 273 small cell lung,0.0336 µM
same,TGI,DMS 114 small cell lung,0.0402 µM
same,GI50,MALME-3M melanoma,< 0.01 µM
same,TGI,MALME-3M melanoma,> 100 µM
same,TGI,CAKI-1 renal,> 100 µM
same,GI50,U251 CNS,0.0299 µM
same,TGI,U251 CNS,0.0444 µM and 0.103 µM
same,GI50,XF 498 CNS,0.0201 µM
same,TGI,XF 498 CNS,0.0848 µM and 0.0836 µM
same,GI50,SK-MEL-2 melanoma,0.0118 µM
same,GI50,OVCAR-5 ovarian,> 100 µM
same,TGI,OVCAR-5 ovarian,> 100 µM
same,GI50,CCRF-CEM leukemia,0.0107 µM
same,TGI,CCRF-CEM leukemia,5.46 µM
same,GI50,RPMI-8226 leukemia,0.0254 µM
same,TGI,RPMI-8226 leukemia,31.5 µM
same,GI50,IGROV1 ovarian,0.0395 µM
same,TGI,IGROV1 ovarian,> 100 µM
same,GI50,HL-60(TB) leukemia,< 0.01 µM
same,GI50,HCC-2998 colon,0.0238 µM
same,TGI,HCC-2998 colon,0.0413 µM and 0.0657 µM
same,TGI,MOLT-4 leukemia,> 100 µM
same,TGI,TK-10 renal,> 100 µM
BrCC[N+]12CCCN1CCC2,TGI,786-0 renal,22.3 µM
same,TGI,OVCAR-4 ovarian,10.7 µM
same,TGI,SK-OV-3 ovarian,> 93.3 µM
same,TGI,SK-MEL-28 melanoma,26.5 µM
same,TGI,HCT-116 colon,22.8 µM
same,TGI,SK-MEL-5 melanoma,34.3 µM
same,TGI,A498 renal,> 66.2 µM
same,TGI,K-562 leukemia,8.46 µM
same,TGI,NCI-H522 lung,1.71 µM
same,TGI,EKVX NSCLC,38 µM
same,TGI,HOP-62 NSCLC,> 70.5 µM
same,TGI,SW-620 colon,7.39 µM
same,TGI,NCI-H23 lung,36.6 µM
same,TGI,OVCAR-8 ovarian,39.3 µM
same,TGI,UO-31 renal,39.2 µM
same,TGI,HOP-18 NSCLC,21.7 µM
same,TGI,T-47D breast,35.2 µM
same,TGI,LXFL 529 NSCLC,8.59 µM
same,TGI,NCI-H460 lung,48.9 µM
same,TGI,MDA-MB-231 breast,34 µM
same,TGI,RXF-631 renal,46.4 µM
same,TGI,SNB-19 CNS,> 77 µM
same,TGI,KM12 colon,> 94.6 µM
same,TGI,HCT-15 colon,28.2 µM
same,TGI,OVCAR-3 ovarian,30.9 µM
same,TGI,SN12C renal,29.3 µM
same,TGI,SF-539 CNS,32.9 µM
same,TGI,RXF 393 renal,29.2 µM
same,TGI,SNB-75 CNS,32 µM
same,TGI,NCI-H226 lung,60.8 µM
same,TGI,A549 NSCLC,> 81.8 µM
same,TGI,M14 melanoma,24.7 µM
same,TGI,SR leukemia,6.8 µM
same,TGI,SF-295 CNS,> 100 µM
same,TGI,DLD-1 colon,14.1 µM
same,TGI,SF-268 CNS,58.9 µM
same,TGI,M19-MEL melanoma,34.1 µM
same,TGI,LOX IMVI melanoma,27 µM
same,TGI,SNB-78 CNS,37.5 µM
same,TGI,HOP-92 NSCLC,13.7 µM
same,TGI,PC-3 prostate,31.2 µM
same,TGI,HT29 colon,38.2 µM
same,TGI,KM20L2 colon,42.2 µM
same,TGI,COLO 205 colon,10.5 µM
same,TGI,UACC-62 melanoma,20.5 µM
same,TGI,BT-549 breast,31.3 µM
same,TGI,DU-145 prostate,> 100 µM
same,TGI,ACHN renal,14.3 µM
same,TGI,UACC-257 melanoma,37.2 µM
same,TGI,DMS 273 small cell lung,37.1 µM
same,TGI,MALME-3M melanoma,5.2 µM
same,TGI,CAKI-1 renal,2.44 µM
same,TGI,U251 CNS,32.7 µM
same,TGI,SK-MEL-2 melanoma,48.4 µM
same,TGI,OVCAR-5 ovarian,40 µM
same,TGI,CCRF-CEM leukemia,4.87 µM
same,TGI,MDA-N,30.2 µM
same,TGI,HS 578T breast,26.9 µM
same,TGI,RPMI-8226 leukemia,8.38 µM
same,TGI,IGROV1 ovarian,51.1 µM
same,TGI,HL-60(TB) leukemia,12.9 µM
same,TGI,HCC-2998 colon,54.3 µM
same,TGI,MOLT-4 leukemia,12.9 µM
same,TGI,TK-10 renal,27.9 µM
